Patent US12441730B2, “PRMT5 inhibitors” (Merck Sharp & Dohme LLC, priority 2019, dated 2025)
Where two headings read alike, the source gives them in different places. Values belong to the molecule of their own block, whether it stands above or below them.

Columns and labels:
[1] = molecular target: T1, Full-length (FL)-PRMT5-MEP50 enzyme complex (Homo sapiens, UniProt O14744); assay: PRMT5-MEP50 Enzyme Methylation Assay (Version A); assay type: biochemical
T1 construct: Full-length (FL)-PRMT5-MEP50 enzyme complex (recombinant proteins from baculovirus-transfected Sf21 cells: FL-PRMT5; MW=73837 kDa and FL-MEP50; MW=38614); made in house; host or cells: baculovirus-transfected Sf21 cells
Method in brief: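 Compound was pre-incubated with enzyme for 60 min, then reacted 150 min at 37° C. at final 1.0 nM PRMT5-MEP50, 15 μM SAM and 75 nM biotinylated H4R3(Me1) peptide, in 50 mM Bicine pH 8.0 with 1% DMSO. SAMDI mass-spectrometric readout of Me1→Me2 conversion. EC50 from 4- or 7-parameter regression.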

[2] = tested on: symmetric dimethylation of arginine (SDMA) of PRMT5 substrates in MCF-7 cells; assay: PRMT5 Cell Target Engagement (TE) Assay; assay type: cell-based; conditions: Homo sapiens, MCF7, 72 h, 3 days treatment, SDMA high content imaging
Method in brief: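 MCF-7 cells treated 3 days at 37 °C with a ten-point 1:3 titration from 10000 nM. Fixed cells immunostained with anti-SDMA and Alexa488 secondary; nuclear fluorescence quantified by high-content imaging versus DMSO wells, with IC50 from a 4-parameter fit.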

[3] = second value of 7 parameter biphasic fit, read-out: Enzyme Methylation Assay Version A (EC50 2)
[4] = single EC50 = 4 parameter single site sigmoidal fit, EC50 1 = first value of 7 parameter biphasic fit, read-out: Enzyme Methylation Assay Version A (EC50 or EC50 1)

T1 sequence (O14744 whole entry): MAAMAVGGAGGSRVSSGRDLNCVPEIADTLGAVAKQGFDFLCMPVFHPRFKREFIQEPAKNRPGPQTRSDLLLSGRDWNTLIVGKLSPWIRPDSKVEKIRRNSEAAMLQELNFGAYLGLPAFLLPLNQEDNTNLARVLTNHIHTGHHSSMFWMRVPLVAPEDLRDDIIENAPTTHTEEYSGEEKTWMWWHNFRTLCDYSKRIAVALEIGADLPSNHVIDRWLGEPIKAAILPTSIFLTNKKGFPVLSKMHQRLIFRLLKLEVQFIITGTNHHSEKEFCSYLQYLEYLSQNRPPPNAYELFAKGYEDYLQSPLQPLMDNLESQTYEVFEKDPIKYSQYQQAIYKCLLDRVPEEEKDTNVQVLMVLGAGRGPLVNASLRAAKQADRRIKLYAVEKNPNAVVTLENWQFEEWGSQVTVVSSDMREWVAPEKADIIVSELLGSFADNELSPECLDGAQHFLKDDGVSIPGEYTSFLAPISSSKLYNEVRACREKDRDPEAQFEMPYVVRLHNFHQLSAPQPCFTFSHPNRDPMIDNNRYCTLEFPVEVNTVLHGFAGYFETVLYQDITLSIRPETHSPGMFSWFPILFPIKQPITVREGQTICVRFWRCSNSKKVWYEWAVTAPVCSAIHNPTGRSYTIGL
T1 sequence (Q9BQA1 whole entry partner): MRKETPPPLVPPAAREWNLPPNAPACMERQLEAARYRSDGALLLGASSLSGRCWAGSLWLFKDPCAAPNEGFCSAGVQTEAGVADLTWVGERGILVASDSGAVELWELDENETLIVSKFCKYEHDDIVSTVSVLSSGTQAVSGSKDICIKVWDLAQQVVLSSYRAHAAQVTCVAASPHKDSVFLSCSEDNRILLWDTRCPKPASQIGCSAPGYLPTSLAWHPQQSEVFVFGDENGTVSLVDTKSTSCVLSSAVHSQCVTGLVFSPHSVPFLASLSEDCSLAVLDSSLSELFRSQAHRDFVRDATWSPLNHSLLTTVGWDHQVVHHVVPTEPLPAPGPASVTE

SMILES: O=C(c1cn(-c2ccc(F)cc2)cn1)N1CC[C@]2(Cc3ccccc3CN2)[C@H](O)C1 [Example 212, [1-(4-fluorophenyl)-1H-imidazol-4-yl][(3R,3′R)-3′-hydroxy-1,4-dihydro-1′H,2H-spiro[isoquinoline-3,4′-piperidin]-1′-yl]methanone]
- EC50 [1, 3]: 21400 nM
- EC50 [1, 4]: 902 nM
- EC50 [2]: 3120 nM

SMILES: N#Cc1cc(Cl)c2nc(C(=O)N3CC[C@]4(Cc5ccccc5CN4)[C@H](O)C3)cn2c1 [Example 215, 8-chloro-2-{[(3R,3′R)-3′-hydroxy-1,4-dihydro-1′H,2H-spiro[isoquinoline-3,4′-piperidin]-1′-yl]carbonyl}imidazo[1,2-a]pyridine-6-carbonitrile]
- EC50 [1, 4]: 56.7 nM
- EC50 [2]: 122 nM

SMILES: O=C(c1cn2ccc(Cl)c(I)c2n1)N1CC[C@]2(Cc3ccccc3CN2)[C@H](O)C1 [Example 216, (7-chloro-8-iodoimidazo[1,2-a]pyridin-2-yl)[(3R,3′R)-3′-hydroxy-1,4-dihydro-1′H,2H-spiro[isoquinoline-3,4′-piperidin]-1′-yl]methanone]
- EC50 [1, 3]: 2540 nM
- EC50 [1, 4]: 26.3 nM
- EC50 [2]: 711 nM

SMILES: Cc1ccc(C(=O)N2CC[C@]3(Cc4ccccc4CN3)[C@H](O)C2)c(O)n1 [Example 219, 3-{[(3R,3′R)-3′-hydroxy-1,4-dihydro-1′H,2H-spiro[isoquinoline-3,4′-piperidin]-1′-yl]carbonyl}-6-methyl-2(1H)-pyridinone]
- EC50 [1, 3]: 17400 nM
- EC50 [1, 4]: 204 nM
- EC50 [2]: 4160 nM

SMILES: Cc1ccc(C(=O)N2CC[C@]3(Cc4ccccc4CN3)[C@H](O)C2)c(C)n1 [Example 220, (2,6-dimethyl-3-pyridinyl)[(3R,3′R)-3′-hydroxy-1,4-dihydro-1′H,2H-spiro[isoquinoline-3,4′-piperidin]-1′-yl]methanone]
- EC50 [1, 3]: 2600 nM
- EC50 [1, 4]: 83.2 nM
- EC50 [2]: 2100 nM

SMILES: Cc1ccc(C(=O)N2CC[C@]3(Cc4ccccc4CN3)[C@H](O)C2)cn1 [Example 221, [(3R,3′R)-3′-hydroxy-1,4-dihydro-1′H,2H-spiro[isoquinoline-3,4′-piperidin]-1′-yl](6-methyl-3-pyridinyl)methanone]
- EC50 [1, 3]: 3510 nM
- EC50 [1, 4]: 43.6 nM
- EC50 [2]: 2540 nM

SMILES: O=C(c1cn(C2CC2)cn1)N1CC[C@]2(Cc3ccccc3CN2)[C@H](O)C1 [Example 222, (1-cyclopropyl-1H-imidazol-4-yl)[(3R,3′R)-3′-hydroxy-1,4-dihydro-1′H,2H-spiro[isoquinoline-3,4′-piperidin]-1′-yl]methanone]
- EC50 [1, 3]: 25400 nM
- EC50 [1, 4]: 432 nM
- EC50 [2]: ≥ 10000 nM

SMILES: Cc1cn2cc(C(=O)N3CC[C@]4(Cc5ccccc5CN4)[C@H](O)C3)nc2s1 [Example 223, [(3R,3′R)-3′-hydroxy-1,4-dihydro-1′H,2H-spiro[isoquinoline-3,4′-piperidin]-1′-yl](2-methylimidazo[2,1-b][1,3]thiazol-6-yl)methanone]
- EC50 [1, 3]: 631 nM
- EC50 [1, 4]: 22.1 nM
- EC50 [2]: 445 nM

SMILES: O=C(c1cn(C(F)F)cn1)N1CC[C@]2(Cc3ccccc3CN2)[C@H](O)C1 [Example 224, [1-(difluoromethyl)-1H-imidazol-4-yl][(3R,3′R)-3′-hydroxy-1,4-dihydro-1′H,2H-spiro[isoquinoline-3,4′-piperidin]-1′-yl]methanone]
- EC50 [1, 3]: 66800 nM
- EC50 [1, 4]: 3510 nM
- EC50 [2]: ≥ 10000 nM

SMILES: Cc1ccc2c(c1)CN[C@@]1(CCN(C(=O)c3cn4cc(C5CC5)cnc4n3)C[C@H]1O)C2 [Example 228]
- EC50 [1, 4]: 144 nM
- EC50 [2]: 254 nM

SMILES: CO[C@H](C)c1cc(N2CCC(n3ccnc3)C2)cn2cc(C(=O)N3CC[C@]4(Cc5ccccc5CN4)[C@H](O)C3)nc12 (stereo partly drawn) [Example 230, [(3R,3′R)-3′-hydroxy-1,4-dihydro-1′H,2H-spiro[isoquinoline-3,4′-piperidin]-1′-yl]{6-[3-(1H-imidazol-1-yl)-1-pyrrolidinyl]-8-[(1R)-1-methoxyethyl]imidazo[1,2-a]pyridin-2-yl}methanone]
- EC50 [1, 4]: 5.38 nM
- EC50 [2]: 124 nM

SMILES: CO[C@H](C)c1cc(N2Cc3cnn(C)c3C2)cn2cc(C(=O)N3CC[C@]4(Cc5ccccc5CN4)[C@H](O)C3)nc12 [Example 231, [(3R,3′R)-3′-hydroxy-1,4-dihydro-1′H,2H-spiro[isoquinoline-3,4′-piperidin]-1′-yl]{8-[(1R)-1-methoxyethyl]-6-(1-methyl-4,6-dihydropyrrolo[3,4-c]pyrazol-5(1H)-yl)imidazo[1,2-a]pyridin-2-yl}methanone]
- EC50 [1, 4]: 11.3 nM
- EC50 [2]: 66.4 nM

SMILES: CO[C@H](C)c1cc(N2CCn3nccc32)cn2cc(C(=O)N3CC[C@]4(Cc5ccccc5CN4)[C@H](O)C3)nc12 [Example 232, {6-(2,3-dihydro-1H-imidazo[1,2-b]pyrazol-1-yl)-8-[(1R)-1-methoxyethyl]imidazo[1,2-a]pyridin-2-yl}[(3R,3′R)-3′-hydroxy-1,4-dihydro-1′H,2H-spiro[isoquinoline-3,4′-piperidin]-1′-yl]methanone]
- EC50 [1, 4]: 5 nM
- EC50 [2]: 67.3 nM

Now those with a lower EC50 [1, 4], led by results:

- EC50 [1, 3]: 343 nM
- EC50 [1, 4]: 4.33 nM
- EC50 [2]: 209 nM
SMILES: COc1ccc(C)cc1-n1cnc(C(=O)N2CC[C@]3(Cc4ccccc4CN3)[C@H](O)C2)c1 [Example 213, [(3R,3′R)-3′-hydroxy-1,4-dihydro-1′H,2H-spiro[isoquinoline-3,4′-piperidin]-1′-yl][1-(2-methoxy-5-methylphenyl)-1H-imidazol-4-yl]methanone]

- EC50 [1, 3]: 3890 nM
- EC50 [1, 4]: 3.74 nM
- EC50 [2]: 256 nM
SMILES: O=C(c1cn2cccc(Br)c2n1)N1CC[C@]2(Cc3ccccc3CN2)[C@H](O)C1 [Example 209, (8-bromoimidazo[1,2-a]pyridin-2-yl)[(3R,3′R)-3′-hydroxy-1,4-dihydro-1′H,2H-spiro[isoquinoline-3,4′-piperidin]-1′-yl]methanone]

- EC50 [1, 4]: 3.69 nM
- EC50 [2]: 76.2 nM
SMILES: CO[C@H](C)c1cc(N(C)CCn2ccnc2C)cn2cc(C(=O)N3CC[C@]4(Cc5ccccc5CN4)[C@H](O)C3)nc12 [Example 233, [(3R,3′R)-3′-hydroxy-1,4-dihydro-1′H,2H-spiro[isoquinoline-3,4′-piperidin]-1′-yl](8-[(1R)-1-methoxyethyl]-6-{methyl[2-(2-methyl-1H-imidazol-1-yl)ethyl]amino}imidazo[1,2-a]pyridin-2-yl)methanone]

- EC50 [1, 4]: 1.97 nM
- EC50 [2]: 4.07 nM
SMILES: O=C(c1cn2cc(Br)cc(Br)c2n1)N1CC[C@]2(Cc3ccccc3CN2)[C@H](O)C1 [Example 218, (6,8-dibromoimidazo[1,2-a]pyridin-2-yl)[(3R,3′R)-3′-hydroxy-1,4-dihydro-1′H,2H-spiro[isoquinoline-3,4′-piperidin]-1′-yl]methanone]

- EC50 [1, 3]: 47.9 nM
- EC50 [1, 4]: 1.12 nM
- EC50 [2]: 9 nM
SMILES: O=C(c1cn2cc(Cl)cc(Cl)c2n1)N1CC[C@]2(Cc3ccccc3CN2)[C@H](O)C1 [Example 214, (6,8-dichloroimidazo[1,2-a]pyridin-2-yl)[(3R,3′R)-3′-hydroxy-1,4-dihydro-1′H,2H-spiro[isoquinoline-3,4′-piperidin]-1′-yl]methanone]

- EC50 [1, 3]: 692 nM
- EC50 [1, 4]: 0.763 nM
- EC50 [2]: 100 nM
SMILES: O=C(c1cn2cc(F)cc(Br)c2n1)N1CC[C@]2(Cc3ccccc3CN2)[C@H](O)C1 [Example 208, (8-bromo-6-fluoroimidazo[1,2-a]pyridin-2-yl)[(3R,3′R)-3′-hydroxy-1,4-dihydro-1′H,2H-spiro[isoquinoline-3,4′-piperidin]-1′-yl]methanone]

- EC50 [1, 3]: 40.3 nM
- EC50 [1, 4]: 0.73 nM
- EC50 [2]: 11.3 nM
SMILES: O=C(c1cn2cc(Br)cc(F)c2n1)N1CC[C@]2(Cc3ccccc3CN2)[C@H](O)C1 [Example 217, (6-bromo-8-fluoroimidazo[1,2-a]pyridin-2-yl)[(3R,3′R)-3′-hydroxy-1,4-dihydro-1′H,2H-spiro[isoquinoline-3,4′-piperidin]-1′-yl]methanone]

- EC50 [1, 3]: 234 nM
- EC50 [1, 4]: 0.602 nM
- EC50 [2]: 22.6 nM
SMILES: COCCN(C)c1cc([C@@H](C)OC)c2nc(C(=O)N3CC[C@]4(Cc5ccccc5CN4)[C@H](O)C3)cn2c1 [Example 229, [(3R,3′R)-3′-hydroxy-1,4-dihydro-1′H,2H-spiro[isoquinoline-3,4′-piperidin]-1′-yl]{8-[(1R)-1-methoxyethyl]-6-[(2-methoxyethyl)(methyl)amino]imidazo[1,2-a]pyridin-2-yl}methanone]

- EC50 [1, 3]: 55 nM
- EC50 [1, 4]: 0.207 nM
- EC50 [2]: 12.4 nM
SMILES: O=C(c1cn2cc(Cl)cc(Br)c2n1)N1CC[C@]2(Cc3ccccc3CN2)[C@H](O)C1 [Example 210, (8-bromo-6-chloroimidazo[1,2-a]pyridin-2-yl)[(3R,3′R)-3′-hydroxy-1,4-dihydro-1′H,2H-spiro[isoquinoline-3,4′-piperidin]-1′-yl]methanone]

- EC50 [1, 3]: 71.6 nM
- EC50 [1, 4]: 0.191 nM
- EC50 [2]: 7.99 nM
SMILES: O=C(c1cn2cc(C(F)(F)F)cc(Cl)c2n1)N1CC[C@]2(Cc3ccccc3CN2)[C@H](O)C1 [Example 211, [8-chloro-6-(trifluoromethyl)imidazo[1,2-a]pyridin-2-yl][(3R,3′R)-3′-hydroxy-1,4-dihydro-1′H,2H-spiro[isoquinoline-3,4′-piperidin]-1′-yl]methanone]
